Test results from paper PMC10184130.
Counter-ions that a name gives are not always drawn.

Columns and labels:
human C1s = biological target: T1, human C1s (Homo sapiens, UniProt P09871); assay: Human C1s enzyme assay; assay type: biochemical
T1 construct: Recombinant human C1s (358–688 aa) fused with both the N-terminal IgG signal peptide; IgG signal peptide (N); His tag (C); made in house; host or cells: HEK293 cells
T1 sequence (P09871 358-688): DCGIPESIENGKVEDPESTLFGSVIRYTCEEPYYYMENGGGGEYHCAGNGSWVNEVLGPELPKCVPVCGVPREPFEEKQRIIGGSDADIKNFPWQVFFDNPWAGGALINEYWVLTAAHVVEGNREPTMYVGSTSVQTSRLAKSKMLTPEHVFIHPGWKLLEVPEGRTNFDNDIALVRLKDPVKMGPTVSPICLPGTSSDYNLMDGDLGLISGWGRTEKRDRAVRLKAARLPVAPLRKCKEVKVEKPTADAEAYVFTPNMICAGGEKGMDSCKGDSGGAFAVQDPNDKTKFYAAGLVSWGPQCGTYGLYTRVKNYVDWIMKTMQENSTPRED
Method: Recombinant human C1s (358–688 aa) fused with both the N-terminal IgG signal peptide and the C-terminal His tag was expressed in HEK293 cells and purified. The assay was performed in a 384-well clear plate in a total volume of 20 μL of an assay buffer 1 [50 mmol/L Tris–HCl (pH 7.5), 150 mmol/L NaCl, 0.01% (w/v) Tween 20, and 0.01% (w/v) BSA]. Compounds were dissolved in DMSO and diluted to various concentrations. After 20 nL of compound solution was added to the plate, 10 μL of substrate solution containing a 250 μmol/L Z-Lys-SBzl peptide (Watanabe Chemical, Hiroshima, Japan) and 250 μmol/L DTNB (5,5′-dithiobis(2-nitrobenzoic acid)) (Sigma, MO, USA) was added to the plate. Then, 8 nmol/L human C1s was added to the plate and incubated at room temperature for 60 min. The absorbance at 405 nm was detected using an EnVision multilabel plate reader. […] The IC50 values were calculated using IDBS XLfit software.

[1] = likely due to the basic amidine moiety; cited from earlier work
human C1r = biological target: T2, human C1r (Homo sapiens, UniProt P00736); assay: Human C1r enzyme assay; assay type: biochemical
T2 construct: Recombinant human C1r (375–705 aa) fused with both the N-terminal IgG signal peptide; IgG signal peptide (N); His tag (C); made in house; host or cells: HEK293 cells
T2 sequence (P00736 375-705): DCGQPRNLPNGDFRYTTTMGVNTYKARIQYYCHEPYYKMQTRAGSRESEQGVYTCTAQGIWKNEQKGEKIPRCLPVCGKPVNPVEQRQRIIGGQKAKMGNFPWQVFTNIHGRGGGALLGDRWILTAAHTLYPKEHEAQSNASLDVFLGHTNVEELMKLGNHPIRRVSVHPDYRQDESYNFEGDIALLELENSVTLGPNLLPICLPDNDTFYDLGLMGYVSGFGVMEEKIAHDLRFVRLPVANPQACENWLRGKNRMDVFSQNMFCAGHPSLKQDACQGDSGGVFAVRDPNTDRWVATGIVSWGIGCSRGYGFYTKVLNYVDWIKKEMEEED
Description: Recombinant human C1r (375–705 aa) fused with both the N-terminal IgG signal peptide and the C-terminal His tag was expressed in HEK293 cells and purified. Human C1r assay conditions were the same as for human C1s, except that the enzyme solution concentration was 3 nmol/L and the substrate peptide was 250 μmol/L Z-Gly-Arg-SBzl (custom synthesis from Peptide Institute, Osaka, Japan) instead of Z-Lys-SBzl.

human MASP2 = biological target: T3, human MASP2 (Homo sapiens, UniProt O00187); assay: Human MASP2 enzyme assay; assay type: biochemical
T3 construct: Recombinant human MASP2 (298–686 aa) fused with both the N-terminal IgG signal peptide; IgG signal peptide (N); His tag (C); made in house; host or cells: Expi293 cells
T3 sequence (O00187 298-686): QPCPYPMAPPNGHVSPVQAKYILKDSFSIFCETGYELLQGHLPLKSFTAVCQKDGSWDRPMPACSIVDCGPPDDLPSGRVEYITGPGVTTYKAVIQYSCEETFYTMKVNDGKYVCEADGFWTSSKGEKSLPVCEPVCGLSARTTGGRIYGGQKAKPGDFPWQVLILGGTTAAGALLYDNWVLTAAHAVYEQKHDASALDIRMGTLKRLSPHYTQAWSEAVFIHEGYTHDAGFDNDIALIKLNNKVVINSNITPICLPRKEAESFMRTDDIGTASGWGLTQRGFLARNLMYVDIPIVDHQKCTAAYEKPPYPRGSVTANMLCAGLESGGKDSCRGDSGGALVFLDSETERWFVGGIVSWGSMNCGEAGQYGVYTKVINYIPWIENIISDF
Method: Recombinant human MASP2 (298–686 aa) fused with both the N-terminal IgG signal peptide and the C-terminal His tag was expressed in Expi293 cells and purified. The assay was performed in a 384-well black plate in a total volume of 6 μL of the assay buffer 1. After 20 nL of compound solution was added to the plate, 3 μL of substrate solution containing a 20 μmol/L Z-Gly-Arg-SBzl peptide and 20 μmol/L BES-Thio (FUJIFILM Wako, Osaka, Japan) was added to the plate. Then, 0.6 nmol/L human MASP2 was added to the plate and incubated at room temperature for 60 min. The fluorescence at an excitation wavelength of 485 nm and an emission wavelength of 535 nm was detected using an EnVision multilabel plate reader.

human factor D = biological target: T4, human factor D (Homo sapiens, UniProt P00746); assay: Human factor D enzyme assay; assay type: biochemical
T4 construct: Recombinant human factor D (26–253 aa) fused with both the N-terminal IgG signal peptide; IgG signal peptide (N); His tag (C); made in house; host or cells: Expi293 cells
T4 sequence (P00746 26-253): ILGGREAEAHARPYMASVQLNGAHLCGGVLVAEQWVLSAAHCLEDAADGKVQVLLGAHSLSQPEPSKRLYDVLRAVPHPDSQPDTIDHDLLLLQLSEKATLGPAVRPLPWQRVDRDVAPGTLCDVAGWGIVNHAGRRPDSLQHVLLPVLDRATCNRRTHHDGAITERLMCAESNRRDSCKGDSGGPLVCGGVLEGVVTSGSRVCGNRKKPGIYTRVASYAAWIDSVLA
Description: Recombinant human factor D (26–253 aa) fused with both the N-terminal IgG signal peptide and the C-terminal His tag was expressed in Expi293 cells and purified. The human factor D assay condition was the same as for human MASP2, except that the enzyme solution concentration was 20 nmol/L and the substrate solution contained a 400 μmol/L Z-Lys-SBzl peptide and 50 μmol/L BES-Thio.

human thrombin = biological target: T5, human thrombin (Homo sapiens, UniProt P00734); assay: Human thrombin enzyme assay; assay type: biochemical
T5 construct: purchased AnaSpec
Method: The human thrombin enzyme activity was determined by a SensoLyte 520 thrombin activity assay kit (AnaSpec, CA, USA). Purified human thrombin and the substrate were diluted in the assay buffer 1. After 20 nL of compound solution was added to a 384-well black plate, 3 μL of the 2 μmol/L 5-FAM/QXLTM 520 thrombin substrate was added to the plate. Then, 8 nmol/L human thrombin was added to the plate and incubated at room temperature for 60 min. The fluorescence at an excitation wavelength of 485 nm and an emission wavelength of 535 nm was detected using an EnVision multilabel plate reader.

human trypsin = assay: Human trypsin enzyme assay; assay type: biochemical
Method: Recombinant human trypsin (FUJIFILM Wako, Osaka, Japan) and the substrate were diluted in an assay buffer [50 mmol/L Tris–HCl (pH 7.5), 145 mmol/L NaCl, 2 mmol/L CaCl2, and 0.01% (w/v) Tween 20]. After 20 nL of compound solution was added to a 384-well black plate, 3 μL of substrate solution containing 25 μmol/L Boc-Phe-Ser-Arg-MCA (Peptide Institute, Osaka, Japan) was added to the plate. Then, 6 mU/mL human trypsin was added to the plate and incubated at room temperature for 60 min. The fluorescence at an excitation wavelength of 360 nm and an emission wavelength of 460 nm was detected using an EnVision multilabel plate reader.

PAMPA = assay type: in vitro ADME
Method: A PAMPA Evolution system (pION) was applied for the assay. After incubating the test compound (10 μmol/L) for 3 h at 25 °C, the permeation coefficient value was calculated with determining the test compound by LC/MS/MS.

[2] = biological target: T6, Human Multidrug Resistance 1 (MDR-1) Expressing Cells (Homo sapiens, UniProt P08183); assay: Membrane permeability with human MDR-1 expressing cells; assay type: in vitro ADME; settings: supplementary csv
T6 construct: expressed in transfected cells
Method: (§1) The transcellular transport study was performed as reported previously.[31] In brief, the cells were grown in an HTS Transwell 96-well permeable support (pore size of 0.4 μm, 0.143 cm^2 surface area) with a polyethylene terephthalate membrane (Corning Life Sciences, Lowell, MA, USA) at a density of 1.125 × 10^5 cells/well. The cells were preincubated with M199 at 37 °C for 30 min. Subsequently, transcellular transport was initiated by the addition of M199 to apical compartments containing 1 μmol/L test compounds and terminated by the removal of each assay plate after 2 h. The aliquots in the opposite compartments were subjected to measurement for compound concentration by LC–MS/MS. Permeability was calculated using the permeated compound concentration.

MDR1 (P-gp) = biological target: T7, MDR1 (P-gp) (Homo sapiens, UniProt P08183); assay: as above; assay type: in vitro ADME; settings: human; MDR1-expressing cells, 1 μmol/L, 2 h
T7 construct: expressed in transfected cells
Method: as §1

[3] = 95% confidence intervals in parentheses

IC50 (human C1s; [3]) [nM]	Structure (SMILES)	also measured
580	Nc1nncc2cc(N3CCN(c4ccccc4)CC3)ccc12 [Compound 5a, 6-(4-Phenylpiperazin-1-yl)phthalazin-1-amine Trifluoroacetic Acid Salt]	
4200	Nc1nncc2cc(N3CCC(c4ccccc4)CC3)ccc12 [Compound 5b, 6-(4-Phenylpiperidin-1-yl)phthalazin-1-amine Trifluoroacetic Acid Salt]	
> 30000	Nc1nncc2cc(C3CCN(c4ccccc4)CC3)ccc12 [Compound 5c, 6-(1-Phenylpiperidin-4-yl)phthalazin-1-amine]	
1200	Cc1ccccc1N1CCN(c2ccc3c(N)nncc3c2)CC1 [Compound 5d, 6-[4-(2-Methylphenyl)piperazin-1-yl]phthalazin-1-amine Trifluoroacetic Acid Salt]	
560	Cc1cccc(N2CCN(c3ccc4c(N)nncc4c3)CC2)c1 [Compound 5e, 6-[4-(3-Methylphenyl)piperazin-1-yl]phthalazin-1-amine]	
6700	Cc1ccc(N2CCN(c3ccc4c(N)nncc4c3)CC2)cc1 [Compound 5f, 6-[4-(4-Methylphenyl)piperazin-1-yl]phthalazin-1-amine]	
370	Nc1nncc2cc(N3CCN(c4cccc(F)c4)CC3)ccc12 [Compound 5g, 6-[4-(3-Fluorophenyl)piperazin-1-yl]phthalazin-1-amine]	
390	Nc1nncc2cc(N3CCN(c4cccc(Cl)c4)CC3)ccc12 [Compound 5h, 6-[4-(3-Chlorophenyl)piperazin-1-yl]phthalazin-1-amine Trifluoroacetic Acid Salt]	
1400	COc1cccc(N2CCN(c3ccc4c(N)nncc4c3)CC2)c1 [Compound 5i, 6-[4-(3-Methoxyphenyl)piperazin-1-yl]phthalazin-1-amine]	
1400	N#Cc1cccc(N2CCN(c3ccc4c(N)nncc4c3)CC2)c1 [Compound 5j, 3-[4-(1-Aminophthalazin-6-yl)piperazin-1-yl]benzonitrile]	

The next lines start with the compound.

Structure (SMILES)	IC50 (human C1s; [3]) [nM]	also measured
C[C@@H]1CN(c2ccc3c(N)nncc3c2)CCN1c1cccc(F)c1 [(R)-6, 6-[(3R)-4-(3-Fluorophenyl)-3-methylpiperazin-1-yl]phthalazin-1-amine]	820	
C[C@H]1CN(c2ccc3c(N)nncc3c2)CCN1c1cccc(F)c1 [(S)-6, 6-[(3S)-4-(3-Fluorophenyl)-3-methylpiperazin-1-yl]phthalazin-1-amine]	170	
Cc1cc([C@@H]2CN(c3cc(F)c4c(N)nncc4c3)CCN2c2cccc(F)c2)no1 [(S)-8, 8-Fluoro-6-[(3S)-4-(3-fluorophenyl)-3-(5-methyl-1,2-oxazol-3-yl)piperazin-1-yl]phthalazin-1-amine]	> 300000	
CSc1sc(C(=N)N)cc1S(=O)(=O)c1cccc(-c2c(C)cccc2NC(=O)CCCS(C)(=O)=O)c1 [Compound 1]		in vivo pharmacokinetics (PK) properties [1]: poor
Cc1ccc(C(=O)N2CCN(c3ccc4c(N)nccc4c3)CC2)cc1 [Compound 4b, [4-(1-Aminoisoquinolin-6-yl)piperazin-1-yl](4-methylphenyl)methanone]	96000	
Cc1ccc(C(=O)N2CCN(c3ccc4c(N)nncc4c3)CC2)cc1 [Compound 4c, [4-(1-Aminophthalazin-6-yl)piperazin-1-yl](4-methylphenyl)methanone]	2500	
Cc1ccc(C(=O)N2CCN(c3ccc4cnncc4c3)CC2)cc1 [Compound 4d, (4-Methylphenyl)[4-(phthalazin-6-yl)piperazin-1-yl]methanone]	> 300000	
Cc1ccccc1C(=O)N1CCN(c2ccc3c(N)nncc3c2)CC1 [Compound 4e, [4-(1-Aminophthalazin-6-yl)piperazin-1-yl](2-methylphenyl)methanone]		IC50 (human C1s; supplementary csv): 4500 nM; IC50 (human C1r): > 30000 nM; IC50 (human MASP2): > 30000 nM; IC50 (human factor D): > 30000 nM; IC50 (human thrombin): > 30000 nM; IC50 (human trypsin): > 30000 nM
Nc1nncc2cc(N3CCN(C(=O)c4ccccc4)CC3)ccc12 [Compound 4f, [4-(1-Aminophthalazin-6-yl)piperazin-1-yl](phenyl)methanone]	5100	
Cc1cc([C@H]2CN(c3ccc4c(N)nncc4c3)CCN2c2cccc(F)c2)no1.O=C(O)C(F)(F)F [Compound (R)-7, 6-[(3R)-4-(3-Fluorophenyl)-3-(5-methyl-1,2-oxazol-3-yl)piperazin-1-yl]phthalazin-1-amine Trifluoroacetic Acid Salt]	7.1	Papp at 3 h, 10 μmol/L (PAMPA; PAMPA, pH 7.4): 1.9 ×10⁻⁶ cm/s; PAMPA at pH 7.4 (nm/sec) (PAMPA; supplementary csv): 19 nm/sec; MDR1 (A to B) [2]: 3 nm/s; Papp A→B at 2 h, 1 μmol/L (MDR1 (P-gp)): 0.3 ×10⁻⁶ cm/s
